Several values for one entry are separate records, joined by “and”; a condition that tells them apart may be missing. Equal entries are not always repeated.
What was measured:
CepR [1] = molecular target: T1, CepR (Burkholderia cenocepacia, UniProt B4EMD0); assay: CepR antagonism in E. coli β-galactosidase reporter (Ec-reporter), competition against C8-AHL; assay type: cell-based, B. cenocepacia; conditions: against 10 nM C8-AHL; for IC50 / Maximal Inhibition (%): Ec-reporter; for inhibition at 100 µM: read-out: Inh% (100-Act%)
T1 sequence (B4EMD0 1-239): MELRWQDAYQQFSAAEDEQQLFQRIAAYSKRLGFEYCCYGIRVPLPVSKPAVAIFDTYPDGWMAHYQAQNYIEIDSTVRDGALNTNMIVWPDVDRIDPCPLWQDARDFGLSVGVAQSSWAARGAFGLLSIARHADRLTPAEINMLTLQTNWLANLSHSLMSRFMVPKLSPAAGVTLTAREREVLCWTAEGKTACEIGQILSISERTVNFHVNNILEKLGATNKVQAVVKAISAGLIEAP
Outline: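 CepR antagonism was measured in E. coli JLD271 (∆sdiA) carrying pJN105-cepR, which expresses B. cenocepacia CepR from an arabinose-inducible pBAD promoter, and pSC11-cepI, which fuses lacZ to the cepI promoter. Induced cells were grown 4 h with compound and 10 nM C8-AHL. β-Galactosidase activity was then read by CPRG cleavage at 37 °C after Z Buffer permeabilization.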

CepR [2] = molecular target: T1, CepR; assay: CepR agonism in E. coli β-galactosidase reporter (Ec-reporter) JLD271 [pJN105-cepR + pSC11-cepI]; assay type: cell-based, B. cenocepacia; conditions: for activation at 100 µM / Act%: Table S2, Ec-reporter, screening conc. 100 μM; for EC50 / EC50 (nM): agonism dose-response; for Emax: read-out: Maximal Activation (%)
Outline: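 E. coli JLD271 (ΔsdiA) carrying arabinose-inducible CepR (27 mM L-arabinose) and cepI-lacZ fusion, grown 4 h with compound; β-galactosidase measured by CPRG cleavage at 37 °C (~30 min), normalized to OD600. Agonism compared with C8-AHL at 100 μM; screen at 100 μM or solubility limit, then dose-response; ≥3 trials.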

B. multivorans ATCC17616 = assay: Swimming motility assay (0.3% agar); assay type: cell-based; conditions: 50 μM compound, 72 h, untreated = 100%
Description: We were interested to assess the effects of our lead CepR modulators on a phenotype under the control of QS in B. multivorans. However, very little work has been reported to directly link CepR activity in B. multivorans to any QS-controlled phenotype. […] Therefore, we chose to study the effects of compound treatment on both the swarming and swimming motility of B. multivorans (B. multivorans ATCC17616; see Methods).
Figure 3 B. multivorans motility assay data. Swimming motility was measured by spotting B. multivorans plus compound indicated in the center of M9 + 0.1% casamino acids + 0.3% agar in a 10 cm diameter petri dish. Area of the colony after 72 h incubation was calculated using ImageJ, normalized to the B. multivorans wild-type + vehicle (DMSO), and listed above each plate shown. TEXT PRINTED IN THE PICTURE: C8-AHL: 182% | E32: 195% | E35: 175% | E37: 173% | DMSO: 100% | A12: 55% | B12: 53% | E3: 58%
The motility assay was based on a previously reported procedure. B. multivorans was grown overnight with 50 μM compound at 37 °C and normalized to OD600 = 0.4, and then cells were washed with sterile water and resuspended with 50 μM fresh compound. Cells (5 μL) were spotted in the center of M9 + 0.1% Casamino Acids + 0.3% agar plates (100 mm diameter). Cells were grown for 72 h at 37 °C. Images were analyzed using ImageJ to calculate the area of the colony and normalized to the area of B. multivorans wild-type + vehicle (DMSO).

[3] = Table S3, Ec-reporter, screening conc. 100 μM
[4] = Ec-reporter, activity for 100 μM C8-AHL set to 100%, error ±10%

| Compound | IC50 (CepR [1]) [µM] | Maximal Inhibition (%) (CepR [1]) | activation at 100 µM (CepR [2]) [%] | Swimming motility, area of the colony normalized to B. multivorans wild-type + vehicle (DMSO) (B. multivorans ATCC17616) [%] | Act% (CepR [2]) [%] | inhibition at 100 µM (CepR [1]; [3]) [%] | EC50 (CepR [2]; Ec-reporter) | EC50 (nM) (CepR [2]; Ec-reporter) | Emax (CepR [2]; [4]) [%] | CepR agonism in words (CepR [2]; Ec-reporter) | EC50 fold higher in the Ec-reporter than in the Bm-reporter (CepR [2]; Ec- vs Bm-reporter) | Inh% (100-Act%) (CepR [1]; [3]) [%] | Maximal Activation (%) (CepR [2]; [4]) |
| --- | --- | --- | --- | --- | --- | --- | --- | --- | --- | --- | --- | --- | --- |
| O=C(CC1CCCC1)N[C@H]1CCOC1=O [Compound B12] | 3.7 | 69 | 39 | 53 | – | – | – | – | – | – | – | – | – |
| O=C(Cc1cccc(Br)c1)N[C@H]1CCOC1=O [Compound C8] | 2.7 | 79 | – | – | 12 | – | – | – | – | – | – | – | – |
| O=C(CCc1ccc(C(F)(F)F)cc1)N[C@H]1CCOC1=O [Compound E35] | – | – | 100 | 175 | – | -50 | 0.00018 µM | sub-nanomolar | 100 | – | – | – | – |
| CCCCCCCS(=O)(=O)N[C@H]1CCOC1=O [Compound A12] | 0.38 | 68 | 46 | 55 | – | – | – | – | 46 | failed to activate CepR | – | – | – |
| O=C(Cc1cccc(C(F)(F)F)c1)N[C@H]1CCOC1=O [Compound E3] | 3.3 | 77 | 6.6 | 58 | – | – | – | – | – | – | – | – | – |
| O=C(CCc1ccc([N+](=O)[O-])cc1)N[C@H]1CCOC1=O [Compound E37] | – | – | 95 | 173 | – | -30 | 0.00019 µM | sub-nanomolar | 95 | – | – | – | – |
| CCCCCCCC(=O)N[C@H]1CCOC1=O [Compound C8-AHL, N-octanoyl L-homoserine lactone, reference compound] | – | – | 100 | 182 | – | -30 | 0.005 µM and 0.0057 µM | – | 100 | – | ~ 10 fold | – | – |
| CCCCCC(O)CC(=O)N[C@H]1CCOC1=O (some centres unmarked) [3’OH-C8-AHL, reference compound] | – | – | – | – | 84 | – | 0.21 µM | – | – | – | – | -20 | 84 |
| O=C(CCc1ccc(I)cc1)N[C@H]1CCOC1=O [Compound E32] | – | – | 97 | 195 | – | -20 | 0.0011 µM | – | 97 | – | – | – | – |
